Data from ChEMBL document CHEMBL1149965, “Synthesis and biological evaluation of conformationally constrained bicyclic and tricyclic balanol analogues as inhibitors of protein kinase C” (Bioorg Med Chem Lett, 1995).

Molecular target: T1, Protein kinase C beta type (Homo sapiens, UniProt P05771)
Assay: Inhibition of Protein kinase C beta 1

T1 sequence (P05771 whole entry): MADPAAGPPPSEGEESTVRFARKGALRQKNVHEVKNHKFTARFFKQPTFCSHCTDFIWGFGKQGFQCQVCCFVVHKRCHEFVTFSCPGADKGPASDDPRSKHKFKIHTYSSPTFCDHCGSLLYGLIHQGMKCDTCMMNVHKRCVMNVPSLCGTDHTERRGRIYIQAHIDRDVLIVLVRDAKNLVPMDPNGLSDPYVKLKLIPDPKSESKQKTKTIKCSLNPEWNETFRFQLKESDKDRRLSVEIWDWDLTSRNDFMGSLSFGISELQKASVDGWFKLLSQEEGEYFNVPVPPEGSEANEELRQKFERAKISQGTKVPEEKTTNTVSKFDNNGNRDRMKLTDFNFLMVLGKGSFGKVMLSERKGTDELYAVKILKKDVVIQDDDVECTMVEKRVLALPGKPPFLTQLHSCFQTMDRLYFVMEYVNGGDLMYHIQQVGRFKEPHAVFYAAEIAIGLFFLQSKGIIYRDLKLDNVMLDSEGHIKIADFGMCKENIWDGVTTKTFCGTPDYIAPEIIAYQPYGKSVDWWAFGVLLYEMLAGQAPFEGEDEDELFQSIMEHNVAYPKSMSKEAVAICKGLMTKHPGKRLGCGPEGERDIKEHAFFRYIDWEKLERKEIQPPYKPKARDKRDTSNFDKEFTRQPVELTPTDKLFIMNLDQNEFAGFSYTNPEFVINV

Structure (SMILES) | IC50
O=C(NC1C2CCC(C2)C1OC(=O)c1cc(O)c(C(=O)c2c(O)cccc2C(=O)O)c(O)c1)c1ccc(O)cc1 (racemic) | 45 nM
CC1(C)C2CCC1(C)C(OC(=O)c1cc(O)c(C(=O)c3c(O)cccc3C(=O)O)c(O)c1)C2NC(=O)c1ccc(O)cc1 (centres undefined) | 310 nM
O=C(NC1C2CC(C3CCCC32)C1OC(=O)c1cc(O)c(C(=O)c2c(O)cccc2C(=O)O)c(O)c1)c1ccc(O)cc1 (stereo in doubt; anti) | 150 nM
O=C(NC1CCC[C@@H]1OC(=O)c1cc(O)c(C(=O)c2c(O)cccc2C(=O)O)c(O)c1)c1ccc(O)cc1 (mixture of isomers) | 40 nM
O=C(NC1CNC[C@@H]1OC(=O)c1cc(O)c(C(=O)c2c(O)cccc2C(=O)O)c(O)c1)c1ccc(O)cc1 (mixture of isomers) | 17 nM
O=C(NC1C2CCC(C2)C1OC(=O)c1cc(O)c(C(=O)c2c(O)cccc2C(=O)O)c(O)c1)c1ccc(O)cc1 (stereo in doubt) | 17000 nM

Molecular target: Protein kinase C alpha type (Homo sapiens, UniProt P17252)
Assay: Inhibition of Protein kinase C alpha

Structure (SMILES) | IC50
O=C(NC1C2CCC(C2)C1OC(=O)c1cc(O)c(C(=O)c2c(O)cccc2C(=O)O)c(O)c1)c1ccc(O)cc1 (racemic) | 55 nM
CC1(C)C2CCC1(C)C(OC(=O)c1cc(O)c(C(=O)c3c(O)cccc3C(=O)O)c(O)c1)C2NC(=O)c1ccc(O)cc1 (centres undefined) | 410 nM
O=C(NC1C2CC(C3CCCC32)C1OC(=O)c1cc(O)c(C(=O)c2c(O)cccc2C(=O)O)c(O)c1)c1ccc(O)cc1 (stereo in doubt; anti) | 100 nM
O=C(NC1CCC[C@@H]1OC(=O)c1cc(O)c(C(=O)c2c(O)cccc2C(=O)O)c(O)c1)c1ccc(O)cc1 (mixture of isomers) | 40 nM
O=C(NC1CNC[C@@H]1OC(=O)c1cc(O)c(C(=O)c2c(O)cccc2C(=O)O)c(O)c1)c1ccc(O)cc1 (mixture of isomers) | 22 nM
O=C(NC1C2CCC(C2)C1OC(=O)c1cc(O)c(C(=O)c2c(O)cccc2C(=O)O)c(O)c1)c1ccc(O)cc1 (stereo in doubt) | 24000 nM

Molecular target: Protein kinase C delta type (Homo sapiens, UniProt Q05655)
Sequence (Q05655 whole entry): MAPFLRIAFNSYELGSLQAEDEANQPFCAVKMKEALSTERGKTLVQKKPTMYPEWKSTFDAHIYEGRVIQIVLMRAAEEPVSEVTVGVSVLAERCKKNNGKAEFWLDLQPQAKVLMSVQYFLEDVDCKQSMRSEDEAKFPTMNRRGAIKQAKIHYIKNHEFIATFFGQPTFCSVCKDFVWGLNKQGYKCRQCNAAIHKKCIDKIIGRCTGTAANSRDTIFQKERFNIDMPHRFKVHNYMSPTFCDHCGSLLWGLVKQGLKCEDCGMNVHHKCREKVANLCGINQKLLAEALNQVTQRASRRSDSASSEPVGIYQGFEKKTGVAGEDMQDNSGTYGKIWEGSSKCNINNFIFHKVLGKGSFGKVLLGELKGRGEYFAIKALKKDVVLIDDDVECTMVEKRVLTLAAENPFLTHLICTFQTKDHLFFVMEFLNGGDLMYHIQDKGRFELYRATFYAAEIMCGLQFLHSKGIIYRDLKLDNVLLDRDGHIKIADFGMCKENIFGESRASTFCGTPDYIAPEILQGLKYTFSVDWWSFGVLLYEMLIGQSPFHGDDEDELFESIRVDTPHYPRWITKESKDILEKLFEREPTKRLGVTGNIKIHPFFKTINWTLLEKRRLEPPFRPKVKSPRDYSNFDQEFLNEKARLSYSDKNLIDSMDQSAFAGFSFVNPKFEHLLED
Assay: Inhibition of Protein kinase C delta

Structure (SMILES) | IC50
O=C(NC1C2CCC(C2)C1OC(=O)c1cc(O)c(C(=O)c2c(O)cccc2C(=O)O)c(O)c1)c1ccc(O)cc1 (racemic) | 20 nM
CC1(C)C2CCC1(C)C(OC(=O)c1cc(O)c(C(=O)c3c(O)cccc3C(=O)O)c(O)c1)C2NC(=O)c1ccc(O)cc1 (centres undefined) | 340 nM
O=C(NC1C2CC(C3CCCC32)C1OC(=O)c1cc(O)c(C(=O)c2c(O)cccc2C(=O)O)c(O)c1)c1ccc(O)cc1 (stereo in doubt; anti) | 50 nM
O=C(NC1CCC[C@@H]1OC(=O)c1cc(O)c(C(=O)c2c(O)cccc2C(=O)O)c(O)c1)c1ccc(O)cc1 (mixture of isomers) | 1 nM
O=C(NC1CNC[C@@H]1OC(=O)c1cc(O)c(C(=O)c2c(O)cccc2C(=O)O)c(O)c1)c1ccc(O)cc1 (mixture of isomers) | 5 nM
O=C(NC1C2CCC(C2)C1OC(=O)c1cc(O)c(C(=O)c2c(O)cccc2C(=O)O)c(O)c1)c1ccc(O)cc1 (stereo in doubt) | 3500 nM

Molecular target: T2, Protein kinase C epsilon type (Homo sapiens, UniProt Q02156)
T2 sequence (Q02156 whole entry): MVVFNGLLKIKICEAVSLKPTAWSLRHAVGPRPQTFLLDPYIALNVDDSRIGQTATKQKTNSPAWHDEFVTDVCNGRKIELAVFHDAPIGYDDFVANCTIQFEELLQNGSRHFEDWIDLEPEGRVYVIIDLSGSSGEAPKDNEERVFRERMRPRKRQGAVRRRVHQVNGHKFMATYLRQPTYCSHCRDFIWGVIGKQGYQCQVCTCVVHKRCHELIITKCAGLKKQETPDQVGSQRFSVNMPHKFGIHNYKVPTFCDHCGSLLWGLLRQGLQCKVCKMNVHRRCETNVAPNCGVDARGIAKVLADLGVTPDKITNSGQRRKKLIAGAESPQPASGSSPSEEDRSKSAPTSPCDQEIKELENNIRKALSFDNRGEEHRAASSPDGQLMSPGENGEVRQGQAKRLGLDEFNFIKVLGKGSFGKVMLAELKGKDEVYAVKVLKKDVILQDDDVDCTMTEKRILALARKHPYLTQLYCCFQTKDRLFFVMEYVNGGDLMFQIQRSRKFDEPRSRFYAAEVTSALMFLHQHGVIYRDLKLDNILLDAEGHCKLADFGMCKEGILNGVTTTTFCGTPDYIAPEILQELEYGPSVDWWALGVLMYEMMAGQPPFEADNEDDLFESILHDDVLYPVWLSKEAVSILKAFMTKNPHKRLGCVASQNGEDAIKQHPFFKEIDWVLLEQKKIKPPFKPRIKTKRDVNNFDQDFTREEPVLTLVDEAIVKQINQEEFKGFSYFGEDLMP
Assay: Inhibition of Protein kinase C epsilon

Structure (SMILES) | IC50
O=C(NC1C2CCC(C2)C1OC(=O)c1cc(O)c(C(=O)c2c(O)cccc2C(=O)O)c(O)c1)c1ccc(O)cc1 (racemic) | 30 nM
CC1(C)C2CCC1(C)C(OC(=O)c1cc(O)c(C(=O)c3c(O)cccc3C(=O)O)c(O)c1)C2NC(=O)c1ccc(O)cc1 (centres undefined) | 3600 nM
O=C(NC1C2CC(C3CCCC32)C1OC(=O)c1cc(O)c(C(=O)c2c(O)cccc2C(=O)O)c(O)c1)c1ccc(O)cc1 (stereo in doubt; anti) | 970 nM
O=C(NC1CCC[C@@H]1OC(=O)c1cc(O)c(C(=O)c2c(O)cccc2C(=O)O)c(O)c1)c1ccc(O)cc1 (mixture of isomers) | 50 nM
O=C(NC1CNC[C@@H]1OC(=O)c1cc(O)c(C(=O)c2c(O)cccc2C(=O)O)c(O)c1)c1ccc(O)cc1 (mixture of isomers) | 15 nM
O=C(NC1C2CCC(C2)C1OC(=O)c1cc(O)c(C(=O)c2c(O)cccc2C(=O)O)c(O)c1)c1ccc(O)cc1 (stereo in doubt) | 1500 nM

Molecular target: cAMP-dependent protein kinase (PKA) (Homo sapiens, UniProt P22694+P17612+P22612)
Assay: Inhibition of Protein Kinase A
Format: protein assay

Structure (SMILES) | IC50
O=C(NC1C2CCC(C2)C1OC(=O)c1cc(O)c(C(=O)c2c(O)cccc2C(=O)O)c(O)c1)c1ccc(O)cc1 (racemic) | 1900 nM
CC1(C)C2CCC1(C)C(OC(=O)c1cc(O)c(C(=O)c3c(O)cccc3C(=O)O)c(O)c1)C2NC(=O)c1ccc(O)cc1 (centres undefined) | 26000 nM
O=C(NC1C2CC(C3CCCC32)C1OC(=O)c1cc(O)c(C(=O)c2c(O)cccc2C(=O)O)c(O)c1)c1ccc(O)cc1 (stereo in doubt; anti) | 32000 nM
O=C(NC1CNC[C@@H]1OC(=O)c1cc(O)c(C(=O)c2c(O)cccc2C(=O)O)c(O)c1)c1ccc(O)cc1 (mixture of isomers) | 70 nM
O=C(NC1C2CCC(C2)C1OC(=O)c1cc(O)c(C(=O)c2c(O)cccc2C(=O)O)c(O)c1)c1ccc(O)cc1 (stereo in doubt) | > 50000 nM

Molecular target: Protein kinase C eta type (Homo sapiens, UniProt P24723)
Sequence (P24723 whole entry): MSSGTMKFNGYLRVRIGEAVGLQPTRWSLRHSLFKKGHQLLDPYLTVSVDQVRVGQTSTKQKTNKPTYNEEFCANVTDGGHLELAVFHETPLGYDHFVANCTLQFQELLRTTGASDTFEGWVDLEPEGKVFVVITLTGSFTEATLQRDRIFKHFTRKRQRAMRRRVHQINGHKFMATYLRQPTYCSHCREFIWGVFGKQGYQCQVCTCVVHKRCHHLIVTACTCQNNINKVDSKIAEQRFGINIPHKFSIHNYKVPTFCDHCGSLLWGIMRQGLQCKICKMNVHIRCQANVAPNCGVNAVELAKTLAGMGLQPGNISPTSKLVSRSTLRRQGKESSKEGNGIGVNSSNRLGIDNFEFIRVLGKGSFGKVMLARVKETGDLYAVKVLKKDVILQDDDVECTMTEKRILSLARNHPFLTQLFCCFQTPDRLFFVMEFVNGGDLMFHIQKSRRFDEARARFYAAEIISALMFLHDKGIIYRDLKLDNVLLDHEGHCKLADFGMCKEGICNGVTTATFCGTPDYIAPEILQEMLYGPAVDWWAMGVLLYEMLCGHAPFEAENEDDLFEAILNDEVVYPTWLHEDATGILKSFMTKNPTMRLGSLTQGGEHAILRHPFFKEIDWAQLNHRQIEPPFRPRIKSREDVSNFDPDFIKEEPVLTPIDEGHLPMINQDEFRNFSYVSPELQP
Assay: Inhibition of Protein kinase C eta

Structure (SMILES) | IC50
O=C(NC1C2CCC(C2)C1OC(=O)c1cc(O)c(C(=O)c2c(O)cccc2C(=O)O)c(O)c1)c1ccc(O)cc1 (racemic) | 20 nM
CC1(C)C2CCC1(C)C(OC(=O)c1cc(O)c(C(=O)c3c(O)cccc3C(=O)O)c(O)c1)C2NC(=O)c1ccc(O)cc1 (centres undefined) | 310 nM
O=C(NC1C2CC(C3CCCC32)C1OC(=O)c1cc(O)c(C(=O)c2c(O)cccc2C(=O)O)c(O)c1)c1ccc(O)cc1 (stereo in doubt; anti) | 50 nM
O=C(NC1CCC[C@@H]1OC(=O)c1cc(O)c(C(=O)c2c(O)cccc2C(=O)O)c(O)c1)c1ccc(O)cc1 (mixture of isomers) | 1 nM
O=C(NC1CNC[C@@H]1OC(=O)c1cc(O)c(C(=O)c2c(O)cccc2C(=O)O)c(O)c1)c1ccc(O)cc1 (mixture of isomers) | 4 nM
O=C(NC1C2CCC(C2)C1OC(=O)c1cc(O)c(C(=O)c2c(O)cccc2C(=O)O)c(O)c1)c1ccc(O)cc1 (stereo in doubt) | 4500 nM

Molecular target: Protein kinase C gamma type (Homo sapiens, UniProt P05129)
Assay: Inhibition Protein kinase C gamma

Structure (SMILES) | IC50
O=C(NC1C2CCC(C2)C1OC(=O)c1cc(O)c(C(=O)c2c(O)cccc2C(=O)O)c(O)c1)c1ccc(O)cc1 (racemic) | 35 nM
CC1(C)C2CCC1(C)C(OC(=O)c1cc(O)c(C(=O)c3c(O)cccc3C(=O)O)c(O)c1)C2NC(=O)c1ccc(O)cc1 (centres undefined) | 210 nM
O=C(NC1C2CC(C3CCCC32)C1OC(=O)c1cc(O)c(C(=O)c2c(O)cccc2C(=O)O)c(O)c1)c1ccc(O)cc1 (stereo in doubt; anti) | 50 nM
O=C(NC1CCC[C@@H]1OC(=O)c1cc(O)c(C(=O)c2c(O)cccc2C(=O)O)c(O)c1)c1ccc(O)cc1 (mixture of isomers) | 10 nM
O=C(NC1CNC[C@@H]1OC(=O)c1cc(O)c(C(=O)c2c(O)cccc2C(=O)O)c(O)c1)c1ccc(O)cc1 (mixture of isomers) | 14 nM
O=C(NC1C2CCC(C2)C1OC(=O)c1cc(O)c(C(=O)c2c(O)cccc2C(=O)O)c(O)c1)c1ccc(O)cc1 (stereo in doubt) | 10000 nM

Molecular target: T1, Protein kinase C beta type
Assay: Inhibition of Protein kinase C beta 2

Structure (SMILES) | IC50
O=C(NC1C2CCC(C2)C1OC(=O)c1cc(O)c(C(=O)c2c(O)cccc2C(=O)O)c(O)c1)c1ccc(O)cc1 (racemic) | 30 nM
CC1(C)C2CCC1(C)C(OC(=O)c1cc(O)c(C(=O)c3c(O)cccc3C(=O)O)c(O)c1)C2NC(=O)c1ccc(O)cc1 (centres undefined) | 80 nM
O=C(NC1C2CC(C3CCCC32)C1OC(=O)c1cc(O)c(C(=O)c2c(O)cccc2C(=O)O)c(O)c1)c1ccc(O)cc1 (stereo in doubt; anti) | 30 nM
O=C(NC1CCC[C@@H]1OC(=O)c1cc(O)c(C(=O)c2c(O)cccc2C(=O)O)c(O)c1)c1ccc(O)cc1 (mixture of isomers) | 50 nM
O=C(NC1CNC[C@@H]1OC(=O)c1cc(O)c(C(=O)c2c(O)cccc2C(=O)O)c(O)c1)c1ccc(O)cc1 (mixture of isomers) | 33 nM
O=C(NC1C2CCC(C2)C1OC(=O)c1cc(O)c(C(=O)c2c(O)cccc2C(=O)O)c(O)c1)c1ccc(O)cc1 (stereo in doubt) | 6900 nM

Molecular target: T3, Protein kinase C zeta type (Homo sapiens, UniProt Q05513)
T3 sequence (Q05513 whole entry): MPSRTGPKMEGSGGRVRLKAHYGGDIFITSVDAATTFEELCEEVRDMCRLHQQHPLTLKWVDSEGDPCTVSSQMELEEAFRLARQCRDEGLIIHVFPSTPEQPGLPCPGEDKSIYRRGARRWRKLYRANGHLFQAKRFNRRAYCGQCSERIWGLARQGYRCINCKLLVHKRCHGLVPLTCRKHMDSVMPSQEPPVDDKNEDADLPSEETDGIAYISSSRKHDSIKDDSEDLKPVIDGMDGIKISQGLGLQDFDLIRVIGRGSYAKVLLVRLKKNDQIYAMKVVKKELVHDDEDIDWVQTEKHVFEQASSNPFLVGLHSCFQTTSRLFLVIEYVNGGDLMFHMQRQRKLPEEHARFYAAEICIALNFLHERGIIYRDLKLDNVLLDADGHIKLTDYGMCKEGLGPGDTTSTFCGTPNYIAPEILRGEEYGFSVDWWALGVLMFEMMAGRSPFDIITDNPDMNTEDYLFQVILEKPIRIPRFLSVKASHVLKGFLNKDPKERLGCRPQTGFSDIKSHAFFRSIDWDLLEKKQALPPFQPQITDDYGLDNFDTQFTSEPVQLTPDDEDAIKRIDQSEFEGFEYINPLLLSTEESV
Assay: Inhibition of Protein kinase C zeta

Structure (SMILES) | IC50
CC1(C)C2CCC1(C)C(OC(=O)c1cc(O)c(C(=O)c3c(O)cccc3C(=O)O)c(O)c1)C2NC(=O)c1ccc(O)cc1 (centres undefined) | > 50000 nM
O=C(NC1CNC[C@@H]1OC(=O)c1cc(O)c(C(=O)c2c(O)cccc2C(=O)O)c(O)c1)c1ccc(O)cc1 (mixture of isomers) | > 150 nM
